From patent US5840835A, “Inhibitors of peptide binding to MHC class II proteins” (Merck & Co., Inc., priority 1996, dated 1998) come the findings set out here.

The target in the assay is T1, DR1Dw1 (Homo sapiens, UniProt P01903+P01911, A100R/D57E/F55L/F60I/F76Y/I96L/L162R/M171V/P40L/Q125E/R42F/V115G/Y59C).
T1 construct: these are Drosophila transmembrane DR; made in house
In words: Inhibition of biotinylated RMBP 90-102 peptide binding to MHC class II DR1 (europium-streptavidin capture assay). The method, then: In studies optimizing the assay it was determined that only between 5 to 10% of the DR molecules are capable of binding added peptide. Therefore, the effective concentration of DR1Dw1 and DR4Dw4 was approximately 0.125 and 1.0 nM, respectively. […] The DR-peptide complexes (50 μL) are transferred to wells of a 96-well EIA plate precoated with LB3.1, the monoclonal antibody which recognizes the DR alleles of MHC Class II, and blocked with PBS with fetal calf serum (FCS). An additional 50 μL of 50 mM Tris, pH 7.0, containing 0.75% octyl glucoside is added to each well and the mixture incubated overnight at 4° C. Excess peptide is removed by washing with PBS containing 0.05% Tween 20 (Polyoxyethylene sorbitan monolaurate) and 0.01% NaN3. Europium-labeled streptavidin (Wallac Inc.) is added and incubated overnight. After washing, complexes are measured by the addition of Enhance™ buffer, the tradename for 0.1M acetate phthalate buffer, pH 3.2, containing 0.1% Triton X-100, tradename for polyoxyethylene ethers and other surface active compounds of Union Carbide Chemicals and Plastics Co., Inc. (particularly, a non-ionic surfactant for recovery of membrane components under non-denaturing conditions) 15 μM 2-naphthoyltrifluoroacetone, and 50 μM tri-N-octylphosphine oxide, which buffer releases the chelated europium from streptavidin and forms a highly fluorescent micellar solution. The resultant fluorescence is measured using a fluorescent plate reader (e.g., DELPHIA, Wallac, Inc.). The data are analyzed using a four-parameter logistical curve […] program (e.g., SigmaPlot) that calculates the concentration of biotinylated peptide giving a half-maximal signal (ED50).
The inhibition assay format is identical to the procedure described above with the exception that the unlabeled antagonist is serially diluted and incubated with constant concentrations of biotinylated RMBP 90-102 (0.3 nM for DR1Dw1 or 0.9 nM for DR4Dw4) and the MHC class II proteins. The concentration of unlabeled compound that prevents 50% of the labeled peptide from binding is the IC50 value. The concentration of the biotinylated RMBP 90-102 in each assay is experimentally determined to be […] one-sixth of its measured ED50 to assure the inhibition was primarily measuring the binding characteristics of the competitor.
In particular, a protocol for carrying out the inhibition assay is given below.
Preparation of antibody plate
Add 115 μL of 5 μg/mL LB3.1 in 50 mM Tris HCl pH 9.6/azide to each well of a Costar EIA plate. Incubate the plate overnight at 4° C.
Wash the plate 4 times with water/0.05% Tween-20/azide. Add 200 μL of PBS/5% FCS/azide for 1 hour at 4° C. to block the plate. The plate may be held at this point for later use or used immediately.
Flip out the block. It is not necessary to wash the plate. At 50 μL of load buffer (50 mM Tris HCl, pH 8.0 0.75% octylglucoside). Add to this volume 50 μL of the reaction mix from day 2, step 3 below.
Preparation of reaction mixture
(1) Add the following to a polypropylene round bottom 96-well plate such as a Costar #3794:
(A) Diluent (Ca Mg free PBS adjusted to pH 6.5 with 0.1M KH2 PO4 /0.75% octylglucoside/azide)0.81 μL
(B) Competitor at 16.6 times the final concentration in diluent or diluent alone 0.9 μL
(C) Biotinylated rat myelin basic protein (BRMBP) 90-102; 1.5 nM for DR1 or 4.5 nM for DR4 (These are 5×stocks of final concentrations of 0.3 nM/DR1 or 0.9 nM/DR4) 30 μL
(D) 6.25 nM DR1Dw1 or 50 nM DR4Dw4 (these are Drosophila transmembrane DR) (This is a 5×stock of the final concentration of 1.25 or 10 nM.) 30 μL Add the DR last and mix well at this time 150 μL
(2) Incubate at 37° C. for 20 min and 5 hours.
(3) Add 50 μL of this reaction mixture to one well of the blocked antibody plate from day 2 above.
(4) Incubate overnight at 4° C. to capture the DR-peptide complexes.
(5) Wash 4× with H2 O/0.05% Tween-20/azide […]

Where [1] appears, read: 20 min incubation at 37° C., 0.3 nM biotinylated RMBP 90-102, 1.25 nM DR1Dw1, pH 6.5, read-out: IC50 /nM @ 20 min.
The mark [2] stands for this setting: 5 hours incubation at 37° C., 0.3 nM biotinylated RMBP 90-102, 1.25 nM DR1Dw1, pH 6.5, read-out: IC50 /nM @ 5 Hrs.

Where two headings read alike, the source gives them in different places.

Take “EtOCO-(L)Cha (L)Lys Nva.psi.[(E,CH=CH]Leu-NH2 TFA SALT [Example 5]”: the IC50 was determined as 21 nM under setting [1] and 142 nM under setting [2].
Regarding “EtOCO-(L)Cha (L)Lys Nva.psi.[trans,cPr]Nle-NH2 TFA SALT [Example 6]”, the IC50 under setting [1] was 616 nM.
With “EtOCO--(L)Cha(L)Lys Nva.psi.[E,CH=CH]Nle-NH2 TFA [Example 4]”, the IC50 by setting is: under setting [1], 37 nM; under setting [2], 194 nM.
For “N-(3-CYCLOHEXYLPROPYL)-(L)(ε-NICOTINOYL)Lys Nva.psi.[E,CH=CH]Nle-NH2 TFA SALT [Example 7]” the same measures were 409 nM and 2280 nM.
On the same counts, the results for “α-(3-CYCLOHEXYLPROPYL)-(L)(3-PYRIDYL)Ala Nva.psi.[(E)CH=CH]Leu-NH2 TFA SALT [Example 9]” are 2520 nM and 16600 nM.
On the same counts, the results for “α-(3-CYCLOHEXYLPROPYL)-(L)(ε-NICOTINOYL)Lys Nva.psi.[(E)CH=CH]Leu-NH2 TFA SALT [Example 8]” are 1050 nM and 5600 nM.
